# Data from patent US20260297134A1, “CYCLIC PEPTIDES AS PET IMAGING AGENTS OF GRANZYME B” (Merck Sharp & Dohme LLC, priority 2023, published 2026).
# Bridge positions count the residues as written; N and C are the ends. Square brackets hold non-standard residues; d marks the D form. Peptide text beside a SMILES is read from it. * marks the point of attachment. X1 = O=C(O)CN1CCN(CC(=O)O)CC(Cc2ccc(NC(=S)*)cc2)N(CC(=O)O)CC1; NMeF = CN[C@@H](Cc1ccccc1)C(=O)O
# Experiments:
# [1] = Dynamic PET/CT scan in healthy rhesus monkey, biodistribution and clearance; format: in vivo, male rhesus monkey; conditions: i.v.
# Description: Healthy non-human primate: A 3 h dynamic PET/CT scan was performed in a healthy male rhesus monkey to determine whole body biodistribution and clearance properties in an additional species. Approximately 6 mCi of ^18F-labeled anti-granzyme-B peptide was intravenously injected in the animal. Attenuation correction was performed using low-dose CT scan. Regions of interests (ROI) were manually drawn over tissues of interest to determine mean standardized uptake value (SUVmean).
# [2] = biological target: human Granzyme B (hGranzyme B) (Homo sapiens, UniProt P10144); experiment: Surface Plasmon Resonance (SPR) binding to human Granzyme B; conditions: Table 8, 25° C.
# Chain of human Granzyme B (hGranzyme B) (P10144 21-247): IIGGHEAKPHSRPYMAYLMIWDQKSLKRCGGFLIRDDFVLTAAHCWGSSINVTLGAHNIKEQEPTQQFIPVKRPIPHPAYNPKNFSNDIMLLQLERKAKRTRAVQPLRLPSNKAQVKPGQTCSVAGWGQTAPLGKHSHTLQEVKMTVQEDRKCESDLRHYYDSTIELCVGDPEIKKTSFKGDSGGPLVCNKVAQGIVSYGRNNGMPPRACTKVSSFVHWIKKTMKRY
# Description: All reagents and solvents were purchased from commercial sources and used “as is” unless otherwise noted. Reaction progress and synthetic intermediate analysis were assessed by LCMS (UV detection with ESI, APCI, or other mass detection) when applicable using a MeCN/water gradient with either TFA, formic acid, or NH4HCO3 modifier. Silica gel and reverse-phase flash column chromatography were conducted with commercially available pre-packed columns. Reverse-phase preparative HPLC purification was performed on preparative HPLC instruments with UV and MS detection using a MeCN/water gradient with either TFA, formic acid, or NH4OH modifier. Unless otherwise noted, all KD data presented in tables refers to the surface plasmon resonance assay that is described in the Biological Assay section.
# The kinetics of test peptide binding to human Granzyme B (hGranzyme B) was determined by SPR. All experiments were performed at 25° C. using the Biacore 8k+ instrument (Cytiva, Marlborough, MA). The Biacore 8k+ Insight Evaluation Software Version 3.0 was used to fit the data with a 1:1 binding model to determine the association rate constant ka (M^−1s^−1, where “M” equals molar and “s” equals seconds) and the dissociation rate constant kd (s^−1). These rate constants were used to calculate the equilibrium dissociation constant, KD (M)=kd/ka. To measure the binding kinetics of peptides of interest, surfaces were prepared by a capture method to a Series S Streptavidin (SA) chip using a 1×HBS-EP+ running buffer (Cytiva). hGranzyme B was diluted to 10 μg/mL in 1×HBS-EP+ and flowed over spot 2 of each flow cell on the chip at a flow rate of 10 μl/min for 20 s to achieve a level of capture of ~1100 RU. An unmodified spot 1 of each flow cell was used as a matrix binding control or reference surface. Binding kinetics were measured using single cycle kinetics at 25° C. by injecting 5 concentrations with 3-fold serial dilutions of test peptides from […] to 1 μM. Compound dilutions were performed manually in a running buffer containing 1×HBS-EP+(Cytiva), and a final concentration of 2% DMSO. The interaction analyses over hGranzyme B, were performed using a 120 s association time and a 900 s dissociation time. All experiments were conducted at a flow rate of […] with a data collection rate of 10 Hz.
# Peptide dilution series included 2 zero concentration points (no compound) which were averaged and subtracted from the peptide concentration injection as DMSO control responses. Binding data acquired from the reference surface (matrix binding control) were subtracted from the binding data for hGranzyme B surface on the chip to determine specific binding. Next, the association phase data were solvent corrected to account for any signal fluctuation throughout the experiment due to subtle DMSO concentration differences. Corrected response data were analyzed using the Biacore 8k+ Evaluation Software Version 3.0 according to the manufacturer. SPR data for representative compounds of the disclosure are found in Table 8.
# Human granzyme B = Human granzyme B (Homo sapiens, UniProt P10144); experiment: Granzyme B Biochemical Inhibition Assay; conditions: granzyme B 8 nM; 30 min preincubation, room temperature
# Chain of Human granzyme B (P10144 21-247): as above
# Description: Compounds to be tested as inhibitors were manually prepared in a 2-fold serial dilutions in DMSO, spanning 200 μM to 0.39 μM in a Labcyte Echo qualified low dead volume 384-well plate. Then an ECHO acoustic liquid handler was used to dispense 125 nL of each compound from 384-well plate into a PerkinElmer Proxiplate-384 Plus F assay plate. For the positive control of inhibitor, (S)-3-((3S,6S)-3-((2S,3S)-2-acetamido-3-methylpentanamido)-4-oxo-1,2,3,4,6,7-hexahydroazepino[3,2,1-hi]indole-6-carboxamido)-4-oxobutanoic acid (see C. A. Willoughby et al./Bioorg. Med. Chem. Lett. 12 (2002) 2197-2200 2199) was used at 2 μM assay concentration. For no inhibition control, DMSO was used. Each compound was run in duplicate.
# Once the compounds were dispensed in the plates, enzyme mix and substrate mix were prepared. […] Subsequently, 3.125 μL of substrate mix were added to each well using the BioRaptr, reaching a final assay volume of 12.5 μL. and the plate was monitored using a Pherastar FS by 1 read per minute for 30 minutes in fluorescence mode, excitation wavelength is 400 nm and emission wavelength is 510 nm.
# The data analysis was performed first in excel, where the slopes of the measured fluorescence from each sample were determined using MARS software from BMG LABTECH. […]
excretion route ([1]; PET images),"blood pool clearance ([1]; approximately 6 mCi, PET)",liver uptake duration ([1]; quantitative analyses of PET images),Kd [2],IC50 (Human granzyme B),Compound,uptake in liver and kidneys ([1]; within first 20 minutes of injection)
primarily excreted through renal route,rapid blood pool clearance,prolonged liver uptake,,,"CC(C)[C@@H]1NC(=O)[C@H](CC(=O)O)NC(=O)[C@H](Cc2ccc(O)cc2)NC(=O)[C@H](Cc2ccc(O)cc2)NC(=O)[C@H](Cc2ccccc2)N(C)C(=O)[C@H](Cc2ccccc2)N(C)C(=O)[C@H](Cc2ccccc2)NC(=O)CSC[C@@H](C(=O)NCC(=O)NCC(=O)N[C@@H](CCCCNC(=S)Nc2ccc(CC3CN(CC(=O)O)CCN(CC(=O)O)CCN3CC(=O)O)cc2)C(N)=O)NC(=O)[C@H](Cc2c[nH]cn2)NC(=O)[C@H](Cc2ccccc2)N(C)C(=O)[C@H](Cc2ccc(O)cc2)NC(=O)[C@H](C(C)C)NC(=O)[C@H](CC(=O)O)NC(=O)[C@H](C(C)C)NC(=O)[C@H](CC(=O)O)NC1=O (stereo partly shown) [Compound 6a, *F.NMeF.NMeF.Y.Y.D.V.D.V.D.V.Y.NMeF.H.*C.G.G.K(^18F-AlF-NOTA)-NH2] ({CH2CO}-F[NMeF][NMeF]YYDVDVDVY[NMeF]HCGGK(X1)-NH2; thioether N-15)",high uptake in liver and kidneys within first 20 minutes of injection
,,,0.5 nM,113 nM,"CC(C)[C@@H]1NC(=O)[C@H](CC(=O)O)NC(=O)[C@H](Cc2ccc(O)cc2)NC(=O)[C@H](Cc2ccc(O)cc2)NC(=O)[C@H](Cc2ccccc2)N(C)C(=O)[C@H](Cc2ccccc2)N(C)C(=O)[C@H](Cc2ccccc2)NC(=O)CSC[C@@H](C(=O)NCC(N)=O)NC(=O)[C@H](Cc2c[nH]cn2)NC(=O)[C@H](Cc2ccccc2)N(C)C(=O)[C@H](Cc2ccc(O)cc2)NC(=O)[C@H](C(C)C)NC(=O)[C@H](CC(=O)O)NC(=O)[C@H](C(C)C)NC(=O)[C@H](CC(=O)O)NC1=O [Compound 1a, *F.NMeF.NMeF.Y.Y.D.V.D.V.D.V.Y.NMeF.H.*C.G-NH2] ({CH2CO}-F[NMeF][NMeF]YYDVDVDVY[NMeF]HCG-NH2; thioether N-15)",
,,,1 nM,,"CC(C)[C@@H]1NC(=O)[C@H](CC(=O)O)NC(=O)[C@H](C)NC(=O)[C@H](Cc2ccc(O)cc2)NC(=O)[C@H](Cc2ccccc2)N(C)C(=O)[C@H](Cc2ccccc2)N(C)C(=O)[C@H](Cc2ccccc2)NC(=O)CSC[C@@H](C(=O)NCC(=O)N[C@@H](CCCCN)C(N)=O)NC(=O)[C@H](Cc2c[nH]cn2)NC(=O)[C@H](Cc2ccccc2)N(C)C(=O)[C@H](Cc2ccc(O)cc2)NC(=O)[C@H](C(C)C)NC(=O)[C@H](CC(=O)O)NC(=O)[C@H](C(C)C)NC(=O)[C@H](CC(=O)O)NC1=O [Compound 10a, *F.NMeF.NMeF.Y.A.D.V.D.V.D.V.Y.NMeF.H.*C.G.K-NH2] ({CH2CO}-F[NMeF][NMeF]YADVDVDVY[NMeF]HCGK-NH2; thioether N-15)",
